Laboratory results published in paper PMC12193579, “Pro-Apoptotic Activity of 1-(4,5,6,7-Tetrabromo-1H-benzimidazol-1-yl)propan-2-one, an Intracellular Inhibitor of PIM-1 Kinase in Acute Lymphoblastic Leukemia and Breast Cancer Cells” (International Journal of Molecular Sciences, 2025).
Entries after “also recorded” stand apart in the source; their conditions may differ. Like-named read-outs stand apart in the source and are kept apart here.

Tests used:
Jurkat cells = system: Jurkat cells; design: method as in PMID 15566294; settings: read-out: DC50 value, apoptosis of Jurkat cells; cited from earlier work
[1] = system: mitochondria polarization; design: method as in PMID 15566294; settings: up to a 10 µM concentration; cited from earlier work
LNCaP cell line = system: LNCaP cell line; design: method as in PMID 29246854; settings: 48 h of exposure to 10 μM; cited from earlier work
[2] = system: Vero (Cercopithecus aethiops kidney); assay: MTT-based viability assay, Vero; format: cell-based; settings: Chlorocebus sabaeus, 48 h, read-out: IC50 [µM] Vero
Method: (§1) 3. The cytotoxicity of the newly obtained inhibitors, i.e., 1, 2, and 4 was tested towards four cell lines, i.e., CCRF-CEM (acute lymphoblastic leukemia ALL), MCF-7 (breast carcinoma), MDA-MB-231 (triple negative breast carcinoma), and Vero (Cercopithecus aethiops kidney).
(§2) The CCRF-CEM (acute lymphoblastic leukemia, ALL) and MDA-MB-231 (triple-negative breast adenocarcinoma) cell lines were obtained from the European Collection of Authenticated Cell Cultures (ECACC), while the MCF-7 (hormone-dependent breast adenocarcinoma) and Vero (Cercopithecus aethiops kidney) cell lines were purchased from the American Type Culture Collection (ATCC, Manassas, VA, USA). CCRF-CEM cells were maintained in RPMI-1640 medium, whereas MCF-7 and MDA-MB-231 cells were cultured in DMEM (Sigma-Aldrich Chemical Company, St. Louis, MO, USA). Vero cells were cultured in minimum essential medium eagle (MEM; Sigma-Aldrich). All media were supplemented with 10% fetal bovine serum (FBS), 2 mM L-glutamine, and antibiotics (100 U/mL penicillin and 100 µg/mL streptomycin) (Sigma-Aldrich). Cells were grown in 75-cm^2 culture flasks (Googlab Scientific, Rakocin, Poland) in a humidified atmosphere containing 5% CO2 at 37 °C. All experiments were performed using exponentially growing cultures. Stock solutions of the test compounds were prepared in DMSO and stored at –80 °C for up to one month.
(§3) Following incubation with the tested compounds, the MTT assay was carried out as previously described. Optical density was measured at 570 nm using a BioTek microplate reader (Winooski, VT, USA). All measurements were performed in at least three independent biological replicates.

[3] = system: CK2 in CCRF-CEM cells (Ser529 in NF-κB p65); assay: PhosFlow analysis of NF-κB p65 Ser529 phosphorylation, CCRF-CEM; format: cell-based, human; settings: 16 µM, 24 h
Method: CCRF-CEM cells were prepared following the BD PhosFlow™ Protocol for Human PBMCs using NF-κB p65 (pS529)-PE (#558423), BD PhosFlow™ Perm Buffer III (#558050), Cytofix Fixation Buffer (#554655), and Stain Buffer FBS (#554656), all obtained from Becton Dickinson. Flow cytometric analysis was performed using a BD Accuri C6 Plus cytometer (Becton Dickinson) according to the manufacturer’s instructions.

CCRF-CEM cells [4] = assay: annexin V/propidium iodide apoptosis, flow cytometry, CCRF-CEM; format: cell-based, human; settings: 48 h, annexin V binding
Method: The results obtained for CCRF-CEM and MCF-7 are shown in Figure 3 and Figure 4, respectively. […] 1, 79.6% of cells were apoptotic.
CCRF-CEM cells were seeded in 24-well plates at a density of 2 × 10^5 cells/mL. The cells were treated with the tested compounds at concentrations of 8, 16, and 32 µM, followed by incubation for 48 h. After treatment, the cells were harvested and processed according to the previously described protocol. Flow cytometric measurements were conducted within 1 h of cell labeling. Viable, necrotic, early apoptotic, and late apoptotic cells were identified using a BD Accuri C6 Plus flow cytometer and analyzed with BD Accuri C6 Plus software, version 1.0.34.1 (BD Biosciences, San Jose, CA, USA).

[5] = system: MDA-MB-231 (breast carcinoma); assay: MTT-based viability assay, MDA-MB-231; format: cell-based, human; settings: for IC50: Homo sapiens, read-out: IC50 [µM] MDA-MB-231
Method: as §1, §2, §3

CCRF-CEM cells [6] = assay: cell cycle progression by flow cytometry, CCRF-CEM; format: cell-based, human; settings: 16 µM, 48 h; control 33%
Method: Since CK2 and PIM kinases regulate cell cycle progression, their inhibition may alter the distribution of cells across different cell cycle phases. […] For control cells, the percentage of G2/M cells was 17%. In addition to those changes, we observed cells in the sub-G1 phase, which are apoptotic cells. Accumulation of cells in this phase reflects DNA degradation characteristic of apoptotic cells. The largest percentage of these cells, i.e., 32% was determined in 16 µM 1-treated cells (Figure 6a,b).
(§4) CCRF-CEM and MCF-7 cells were cultured in 6-well plates and treated with the tested compounds for 48 h. After exposure to the compounds, the cells were collected, washed with cold PBS, and fixed in 70% ethanol at –20 °C for at least 24 h. Subsequently, the cells were washed in PBS and stained according to the procedure previously described by our group. The cellular DNA content was measured by flow cytometry using a BD Accuri C6 Plus flow cytometer (BD Biosciences, San Jose, CA, USA). The resulting DNA histograms were analyzed with BD Accuri C6 Plus software (San Diego, CA, USA) to assess the distribution of cells across different phases of the cell cycle.

MCF-7 (breast carcinoma) = assay: MTT-based viability assay, MCF-7; format: cell-based, human; settings: for IC50: Homo sapiens, read-out: IC50 [µM] MCF-7; for SI (selectivity index) MCF-7: IC50 for Vero/IC50 for cancer cells
Method: as §1, §2, §3

[7] = system: CCRF-CEM (acute lymphoblastic leukemia); assay: MTT-based viability assay, CCRF-CEM; format: cell-based, human; settings: for IC50: Homo sapiens, CCRF-CEM, 48 h, read-out: IC50 [µM] CCRF-CEM; for SI (selectivity index) CCRF-CEM: IC50 for Vero/IC50 for cancer cells
Method: as §1, §2, §3

[8] = system: hormone-sensitive human prostate cancer cell line LNCaP; design: method as in PMID 22698781; settings: cited from earlier work
CCRF-CEM cells [9] = assay: mitochondrial membrane potential (ΔΨm) JC-1 assay, CCRF-CEM; format: cell-based, human; settings: 16 µM, 48 h
Method: The mitochondrial membrane potential was evaluated by flow cytometry using 5,5′,6,6′-tetrachloro-1,1′,3,3′-tetraethylbenzimidazolocarbocyanine iodide (JC-1; Sigma-Aldrich), as previously described.

PIM-1 kinase = molecular target: T1, PIM-1 kinase (Homo sapiens, UniProt P11309); assay: radiometric P81 filter isotopic kinase assay, PIM-1; format: biochemical; settings: for remaining activity at 2 µM: cpd. concentration 2 μM; for remaining activity at 2 µM / remaining activity at 5 µM / remaining activity at 20 µM: read-out: PIM-1 Residual Activity [%]; for remaining activity at 5 µM: cpd. concentration 5 μM; for remaining activity at 20 µM: cpd. concentration 20 μM
T1 construct: made in house
Method: (§5) Synthetic peptide […] served as the substrate for CK2, while peptide […] was used as the substrate for PIM-1.
(§6) The synthesized compounds were evaluated for their inhibitory activity against human CK2α, the human CK2 holoenzyme, and PIM-1 using the P81 filter-based isotopic assay, as previously described. […] The experimental data were fitted to a dose–response curve using non-linear regression analysis (variable slope) Y = Bottom + (Top − Bottom)/(1 + 10^((LogIC50 − X) × HillSlope) equation in GraphPad Prism (Prism 9, version 9.0.1).

MCF-7 cells = assay: cell cycle progression by flow cytometry, MCF-7; format: cell-based, human; settings: 8 µM, 48 h; control 17%
Method: Additionally, we observed the prolongation of G2/M in MCF-7 treated with 1 at the highest concentration. […] 1 induced G2/M phase arrest in MCF-7 with the highest effect detected for the 16 µM concentration, manifested as 32% cells in that stage, whereas in the control, the percentage of G2/M cells was 22%.
as §4

[10] = molecular target: T2, recombinant human CK2 catalytic subunit (rhCK2α) (Homo sapiens, UniProt P68400); assay: radiometric P81 filter isotopic kinase assay, CK2α; format: biochemical; settings: for remaining activity at 2 µM: cpd. concentration 2 μM; for remaining activity at 2 µM / remaining activity at 5 µM / remaining activity at 20 µM: read-out: CK2α Residual Activity [%]; for remaining activity at 5 µM: cpd. concentration 5 μM; for remaining activity at 20 µM: cpd. concentration 20 μM
T2 construct: made in house
Method: as §5, §6

T2 sequence (P68400 whole entry): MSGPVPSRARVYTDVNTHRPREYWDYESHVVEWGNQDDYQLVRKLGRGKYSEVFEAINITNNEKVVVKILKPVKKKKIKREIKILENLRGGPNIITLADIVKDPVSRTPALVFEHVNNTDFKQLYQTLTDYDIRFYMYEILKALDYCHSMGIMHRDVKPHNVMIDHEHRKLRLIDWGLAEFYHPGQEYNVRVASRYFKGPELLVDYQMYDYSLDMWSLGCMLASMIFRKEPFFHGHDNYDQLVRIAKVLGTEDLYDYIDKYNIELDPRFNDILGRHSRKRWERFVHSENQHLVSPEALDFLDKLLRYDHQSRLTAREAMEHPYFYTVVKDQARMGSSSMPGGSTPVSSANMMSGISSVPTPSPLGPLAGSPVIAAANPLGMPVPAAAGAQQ
T1 sequence (P11309 whole entry): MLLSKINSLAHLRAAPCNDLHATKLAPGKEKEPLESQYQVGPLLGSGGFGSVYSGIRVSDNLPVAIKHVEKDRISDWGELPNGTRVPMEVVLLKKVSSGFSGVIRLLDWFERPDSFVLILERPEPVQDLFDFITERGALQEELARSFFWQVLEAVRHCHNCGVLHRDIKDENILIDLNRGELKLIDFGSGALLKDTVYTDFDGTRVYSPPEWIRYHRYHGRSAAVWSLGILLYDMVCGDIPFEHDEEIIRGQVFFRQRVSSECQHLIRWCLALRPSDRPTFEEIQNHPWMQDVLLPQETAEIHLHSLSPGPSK

CN(C)c1nc2c(Br)c(Br)c(Br)c(Br)c2[nH]1 [DMAT, 2-Dimethylamino-4,5,6,7-tetrabromo-1H-benzimidazole]
DC50 (Jurkat cells): 2.7 µM
side effect on mitochondria polarization [1]: does not display any side effect on mitochondria polarization

OCC1OC(n2cnc3c(Br)c(Br)c(Br)c(Br)c32)CC1O [K164, 1-(β-D-2′-deoxyribofuranosyl)-4,5,6,7-tetrabromo-1H-benzimidazole]
apoptotic cells, LNCaP (LNCaP cell line): 91.8%

Brc1c(Br)c(Br)c2[nH]cnc2c1Br [TBBi, 4,5,6,7-tetrabromo-1H-benzimidazole, reference compound]
IC50 [2]: 24.8 ± 0.9 µM
p65-P-negative CCRF-CEM cells [3]: 28%
apoptotic CCRF-CEM cells (CCRF-CEM cells [4]; 8 µM): 16%
apoptotic CCRF-CEM cells (CCRF-CEM cells [4]; 16 µM): 44%
apoptotic CCRF-CEM cells (CCRF-CEM cells [4]; 32 µM): 95%
IC50 ([5]; MDA-MB-231, 48 h): 29.7 ± 2.23 µM
CCRF-CEM cells in the S phase (CCRF-CEM cells [6]): 19%
IC50 (MCF-7 (breast carcinoma); MCF7, 48 h): 12.6 ± 2.72 µM
IC50 [7]: 17.6 ± 0.67 µM
LD50 against LNCaP [8]: ≈ 20 µM
CCRF-CEM cells with reduced ΔΨm (CCRF-CEM cells [9]): 37%
IC50 (PIM-1 kinase): 0.53 ± 0.04 µM
MCF-7 cells in the S phase (MCF-7 cells): 12%

Brc1c(Br)c(Br)c2[nH]nnc2c1Br [TBBt, 4,5,6,7-tetrabromo-1(2)H-benzotriazole]
DC50 (Jurkat cells): 17 µM

Ic1c(I)c(I)c2[nH]cnc2c1I [TIBI, 4,5,6,7-tetraiodo-1H-benzimidazole]
LD50 against LNCaP [8]: ≈ 20 µM

CC(O)Cn1cnc2c(Br)c(Br)c(Br)c(Br)c21 (stereo not drawn) [compound 2, 1-(4,5,6,7-tetrabromo-1H-benzimidazol-1-yl)propan-2-ol]
IC50 ([2]; MTT, non-cancerous cells): 96.1 ± 4.76 µM
IC50 ([5]; MDA-MB-231, MTT, 48 h): 28.2 ± 3.27 µM
SI (selectivity index) MDA-MB-231 ([5]; IC50 for Vero/IC50 for cancer cells): 3.4
IC50 [10]: 11.1 ± 0.15 µM
remaining activity at 2 µM [10]: 70.9 ± 0.9%
remaining activity at 5 µM [10]: 41.8 ± 2.3%
remaining activity at 20 µM [10]: 20.1 ± 1.2%
IC50 (MCF-7 (breast carcinoma); MCF7, MTT, 48 h): 18.4 ± 0.41 µM
SI (selectivity index) MCF-7 (MCF-7 (breast carcinoma)): 5.21
IC50 ([7]; MTT): 58.2 ± 5.86 µM
SI (selectivity index) CCRF-CEM [7]: 1.65
IC50 (PIM-1 kinase): 2.41 ± 0.29 µM
remaining activity at 2 µM (PIM-1 kinase): 58 ± 2.4%
remaining activity at 5 µM (PIM-1 kinase): 26.4 ± 1.7%
remaining activity at 20 µM (PIM-1 kinase): 9.3 ± 0.3%

CC(=O)CCn1cnc2c(Br)c(Br)c(Br)c(Br)c21 [compound 3, 4-(4,5,6,7-Tetrabromo-1H-benzimidazol-1-yl)butan-2-one]
inhibition of CK2 kinase (in words) [10]: inactive; also recorded: very weak
remaining activity at 2 µM [10]: 102 ± 8.9%
remaining activity at 5 µM [10]: 89.2 ± 8.6%
remaining activity at 20 µM [10]: 82.8 ± 15.4%
inhibition of PIM-1 kinase (in words) (PIM-1 kinase): inactive; also recorded: very weak
remaining activity at 2 µM (PIM-1 kinase): 82.5 ± 4.2%
remaining activity at 5 µM (PIM-1 kinase): 67.4 ± 0.7%
remaining activity at 20 µM (PIM-1 kinase): 62.6 ± 0.8%

CC(O)CCn1cnc2c(Br)c(Br)c(Br)c(Br)c21 (stereo not drawn) [compound 4]
IC50 ([2]; MTT, non-cancerous cells): 132 ± 19.4 µM
IC50 ([5]; MDA-MB-231, MTT, 48 h): > 200 µM
remaining activity at 2 µM [10]: 72.1 ± 3%
remaining activity at 5 µM [10]: 21.3 ± 1.9%
remaining activity at 20 µM [10]: 15.6 ± 0.3%
IC50 (MCF-7 (breast carcinoma); MCF7, MTT, 48 h): 41.9 ± 8.37 µM
SI (selectivity index) MCF-7 (MCF-7 (breast carcinoma)): 3.15
IC50 ([7]; MTT): 75.3 ± 10.3 µM
SI (selectivity index) CCRF-CEM [7]: 1.75
IC50 (PIM-1 kinase): 3.08 ± 0.07 µM
remaining activity at 2 µM (PIM-1 kinase): 66.9 ± 1.1%
remaining activity at 5 µM (PIM-1 kinase): 29.1 ± 0.1%
remaining activity at 20 µM (PIM-1 kinase): 21.4 ± 0.2%
